Reference: patent US5539123A, “Low molecular weight thiocarbamates as inhibitors of elastase, uses and method of synthesis” (University of Kentucky Research Foundation, priority 1994, dated 1996)

System: Zymosan Induced Inflammation
Assay: Zymosan-induced paw inflammation (arthritis) in rats, percent volume increase of the paw
Assay type: in vivo, rat
Conditions: for % Oedema Volume change: 3.6 × 10^-4 mg/g IP vs control; for % Volume Increase, Mean of 3 experiments / % Volume Increase: 3.6 × 10^-4 mg/g IP
Text: A reversible arthritic condition was induced according to known procedures for the Zymosan-induced arthritis (See J. P. Tarayre, A. Delphon, et al., Pharmacological studies in zymosan inflammation in rats and mice, I: Zymosan-induced paw edema in rat and mice, Pharmacological Research, 21, (#4) 375-384 (1989); Takuo Sato, Yoshitaka Ino, et al., Inhibitory effects of a novel synthetic protease inhibitor (FUT-175), on the paw edema in rats and Zymosan-induced compliment activation in vitro, Japan J. Pharmacol., 42,587-589 (1986); David K. Gremmell, et al., Comparative effects of drugs on four paw edema models on the rat, Agents and Actions 4, (#1) 107-116 (1979); and D. C. Keystone, et al., Zymosan-induced arthritis: A model of chronic proliferative arthritis following activation of the alternative pathway of compliment, Arthritis and Rheumatism 20 (#7) 1396-1401 (1977)).
Each rat (250 g each) was kept in a restraining cage with light ether anesthesia until the administration of the drug. The procedure involves the intramuscular (IM) injection of 1 mg of Zymosan in 50 μL (microliters) of normal saline in the pad of a hind paw of the rat. Swelling becomes evident within 20 minutes and reaches a maximum within 1.5 hours. The swelling disappears after 24 hours. In the Figures the reversal to normal size of the paw within 24 hours is not shown. The degree of swelling is measured by a water displacement method and the percent (%) of volume increase of the paw is plotted against time (see J. P. Tarayre, A. Delphon, et al., Pharmacological studies in zymosan inflammation in rats and mice. I: Zymosan-induced paw edema in rat and mice, Pharmaco-logical Research, 21, (#4) 375-384 (1989); Takuo Sato, Yoshitaka Ino, et al., Inhibitory effects of a novel synthetic protease inhibitor (FUT-175), on the paw edema in rats and Zymosan-induced compliment activation in vitro, Japan J. Pharmacol., 42, 587-589 (1986)).
Control was conducted by injecting I.P. 100 μl of propylene glycol (the vehicle) 15 min. prior to Zymosan administration. […] Data from tables 1 and 1a are plotted in FIGS. 1 and 1a respectively.
In the experimental procedure the drug [PC-16, […] (FIG. 2) or 90 μg/rat (FIG. 3)] is dissolved in 100 μL of propylene glycol and is injected IP to the rats. Fifteen minutes later the Zymosan (1mg/50 μL of normal saline) solution is injected IM into the paw of the rats. The degree of swelling is subsequently measured at various time intervals for a period of 24 hours and is reported up to 4 hours.

CCCCNC(=O)Sc1nnnn1-c1ccccc1 [PC-16]
percent volume increase of rat paw (36 μg/kg IP 15 min prior to Zymosan, 1.5 hour, control 60%): 20% | swelling of rat paw (360 μg/kg IP 15 min prior to Zymosan): practically no swelling | % Oedema Volume change (10 min): -85.0% | % Oedema Volume change (20 min): -94.4% | % Oedema Volume change (30 min): -94.2% | % Oedema Volume change (40 min): -94.7% | % Oedema Volume change (50 min): -95.1% | % Oedema Volume change (60 min): -94.9% | % Oedema Volume change (65 min): -94.8% | % Oedema Volume change (70 min): -94.6% | % Oedema Volume change (80 min): -93.8% | % Oedema Volume change (95 min): -94.0% | % Oedema Volume change (100 min): -94.3% | % Oedema Volume change (105 min): -94.1% | % Oedema Volume change (115 min): -93.7% | % Oedema Volume change (120 min): -93.3% | % Oedema Volume change (130 min): -94.1% | % Oedema Volume change (135 min): -93.2% | % Oedema Volume change (145 min): -92.6% | % Oedema Volume change (150 min): -91.9% | % Oedema Volume change (160 min): -91.6% | % Oedema Volume change (175 min): -91.5% | % Oedema Volume change (190 min): -91.9% | % Oedema Volume change (200 min): -91.7% | % Oedema Volume change (205 min): -91.3% | % Oedema Volume change (210 min): -90.7% | % Oedema Volume change (220 min): -90.6% | % Oedema Volume change (225 min): -89.8% | % Oedema Volume change (240 min): -90.9% | % Volume Increase, Mean of 3 experiments (0 min): 0.00% | % Volume Increase, Mean of 3 experiments (5 min): 0.89% | % Volume Increase, Mean of 3 experiments (10 min): 1.43% | % Volume Increase, Mean of 3 experiments (15 min): 1.43% | % Volume Increase, Mean of 3 experiments (20 min): 1.61% | % Volume Increase, Mean of 3 experiments (30 min): 2.19% | % Volume Increase, Mean of 3 experiments (40 min): 2.37% | % Volume Increase, Mean of 3 experiments (45 min): 2.00% | % Volume Increase, Mean of 3 experiments (50 min): 2.37% | % Volume Increase, Mean of 3 experiments (55 min): 2.92% | % Volume Increase, Mean of 3 experiments (60 min): 2.92% | % Volume Increase (65 min): 2.92% | % Volume Increase (70 min): 3.13% | % Volume Increase, Mean of 3 experiments (75 min): 3.34% | % Volume Increase, Mean of 3 experiments (80 min): 3.52% | % Volume Increase, Mean of 3 experiments (85 min): 3.52% | % Volume Increase, Mean of 3 experiments (90 min): 3.52% | % Volume Increase (95 min): 3.52% | % Volume Increase, Mean of 3 experiments (100 min): 3.33% | % Volume Increase (105 min): 3.49% | % Volume Increase, Mean of 3 experiments (110 min): 3.65% | % Volume Increase (115 min): 3.78% | % Volume Increase, Mean of 3 experiments (120 min): 3.90% | % Volume Increase, Mean of 3 experiments (125 min): 3.71% | % Volume Increase, Mean of 3 experiments (130 min): 3.35% | % Volume Increase (135 min): 3.53% | % Volume Increase, Mean of 3 experiments (145 min): 3.71% | % Volume Increase, Mean of 3 experiments (150 min): 3.90% | % Volume Increase, Mean of 3 experiments (160 min): 3.90% | % Volume Increase, Mean of 3 experiments (170 min): 3.52% | % Volume Increase (175 min): 3.70% | % Volume Increase, Mean of 3 experiments (180 min): 3.88% | % Volume Increase, Mean of 3 experiments (190 min): 3.34% | % Volume Increase (200 min): 3.41%
